# From patent US20170260178A1 (SPERO GYRASE, INC., priority 2012, published 2017)
# Legend:
# S. aureus (ATCC 29213) = test: Bacterial assay: MIC against S. aureus; type: cell-based, Staphylococcus aureus; settings: for MIC: Staphylococcus aureus, ATCC29213, read-out: minimal inhibitory concentration (MIC)
# S. pyogenes (ATCC 51339) = test: Bacterial assay: MIC against S. pyogenes; type: cell-based, Streptococcus pyogenes; settings: Streptococcus pyogenes, ATCC51339, read-out: minimal inhibitory concentration (MIC)
Structure (SMILES),MIC (S. aureus (ATCC 29213)),MIC (S. pyogenes (ATCC 51339)),minimal inhibitory concentration (MIC) (S. aureus (ATCC 29213); S. aureus ATCC 29213)
"CCNC(=O)Nc1nc2cc(-c3cnc(C(C)(C)O)nc3)cc(N3CCOCC3)c2s1 [Compound 151, 1-ethyl-3-[5-[2-(1-hydroxy-1-methyl-ethyl)pyrimidin-5-yl]-7-morpholino-1,3-benzothiazol-2-yl]urea]",2 µg/mL,2 µg/mL,–
"CCNC(=O)Nc1nc2cc(-c3cnc(C(O)(CC)CC)nc3)cc(-c3ccccn3)c2s1 [Compound 98, 1-ethyl-3-[5-[2-(1-ethyl-1-hydroxy-propyl)pyrimidin-5-yl]-7-(2-pyridyl)-1,3-benzothiazol-2-yl]urea]",≤ 1 µg/mL,≤ 1 µg/mL,–
"CCNC(=O)Nc1nc2cc(-c3cnc(C(C)O)nc3)cc(-c3cc(CN4CC(C)(O)C4)ccn3)c2s1 (stereo not shown) [Compound 66, 1-ethyl-3-[5-[2-(1-hydroxyethyl)pyrimidin-5-yl]-7-[4-[(3-hydroxy-3-methyl-azetidin-1-yl)methyl]-2-pyridyl]-1,3-benzothiazol-2-yl]urea]",2 µg/mL,≤ 1 µg/mL,–
"CCNC(=O)Nc1nc2cc(-c3cnc(C4(O)CCNCC4)nc3)cc(-c3ccccn3)c2s1 [Compound 174, 1-ethyl-3-[5-[2-(4-hydroxy-4-piperidyl)pyrimidin-5-yl]-7-(2-pyridyl)-1,3-benzothiazol-2-yl]urea]",8 µg/mL,2 µg/mL,–
"CCNC(=O)Nc1nc2cc(-c3cnc(C(C)(C)O)nc3)c(OCc3ccc(OC)c(OC)c3)cc2s1 [Compound 192, 1-[6-[(3,4-dimethoxyphenyl)methoxy]-5-[2-(1-hydroxy-1-methyl-ethyl)pyrimidin-5-yl]-1,3-benzothiazol-2-yl]-3-ethyl-urea]",≤ 1 µg/mL,≤ 1 µg/mL,–
"CCNC(=O)Nc1nc2cc(-c3cnc(C(C)(C)O)nc3)cc(-c3cc(CN4CCCC4)ccn3)c2s1 [Compound 26, 1-ethyl-3-[5-[2-(1-hydroxy-1-methyl-ethyl)pyrimidin-5-yl]-7-[4-(pyrrolidin-1-ylmethyl)-2-pyridyl]-1,3-benzothiazol-2-yl]urea]",≤ 1 µg/mL,≤ 1 µg/mL,–
"CCNC(=O)Nc1nc2cc(-c3cnc(C(C)(C)O)nc3)cc(-c3cc(CN4CCC(O)C4)ccn3)c2s1 (stereo not shown) [Compound 29, 1-ethyl-3-[5-[2-(1-hydroxy-1-methyl-ethyl)pyrimidin-5-yl]-7-[4-[(3-hydroxypyrrolidin-1-yl)methyl]-2-pyridyl]-1,3-benzothiazol-2-yl]urea]",≤ 1 µg/mL,≤ 1 µg/mL,–
"CCNC(=O)Nc1nc2cc(-c3cnc(C(C)(C)O)nc3)cc(OC)c2s1 [Compound 12, 1-ethyl-3-[5-[2-(1-hydroxy-1-methyl-ethyl)pyrimidin-5-yl]-7-methoxy-1,3-benzothiazol-2-yl]urea]",≤ 1 µg/mL,≤ 1 µg/mL,–
"CCNC(=O)Nc1nc2cc(-c3cnc(C(C)O)nc3)cc(-c3nccc(N4CCOCC4)n3)c2s1 (stereo not shown) [Compound 94, 1-ethyl-3-[5-[2-(1-hydroxyethyl)pyrimidin-5-yl]-7-(4-morpholinopyrimidin-2-yl)-1,3-benzothiazol-2-yl]urea]",≤ 1 µg/mL,≤ 1 µg/mL,–
"CCNC(=O)Nc1nc2cc(-c3cnc(C(C)(C)O)nc3)cc(-c3cc(CN4CC[C@@H](OC)C4)ccn3)c2s1 [Compound 42, 1-ethyl-3-[5-[2-(1-hydroxy-1-methyl-ethyl)pyrimidin-5-yl]-7-[4-[[(3R)-3-methoxypyrrolidin-1-yl]methyl]-2-pyridyl]-1,3-benzothiazol-2-yl]urea]",≤ 1 µg/mL,≤ 1 µg/mL,–
"CCNC(=O)Nc1nc2cc(-n3cnc(C(C)(C)O)c3)cc(-c3ccccn3)c2s1 [Compound 11, 1-ethyl-3-[5-[4-(1-hydroxy-1-methyl-ethyl)imidazol-1-yl]-7-(2-pyridyl)-1,3-benzothiazol-2-yl]urea]",4 µg/mL,≤ 1 µg/mL,–
"CCNC(=O)Nc1nc2cc(-c3cnc(C(C)(C)O)nc3)cc(-c3cc(CN4CCCC(F)(F)C4)ccn3)c2s1 [Compound 37, 1-[7-[4-[(3,3-difluoro-1-piperidyl)methyl]-2-pyridyl]-5-[2-(1-hydroxy-1-methyl-ethyl)pyrimidin-5-yl]-1,3-benzothiazol-2-yl]-3-ethyl-urea]",≤ 1 µg/mL,≤ 1 µg/mL,–
"CCNC(=O)Nc1nc2cc(-c3cnc(C(C)O)nc3)cc(-c3cc(CN4CCC[C@H]4C(=O)O)ccn3)c2s1 (stereo partly drawn) [Compound 72, (2S)-1-[[2-[2-(ethylcarbamoylamino)-5-[2-(1-hydroxyethyl)pyrimidin-5-yl]-1,3-benzothiazol-7-yl]-4-pyridyl]methyl]pyrrolidine-2-carboxylic acid]",8 µg/mL,8 µg/mL,–
"CCNC(=O)Nc1nc2cc(-c3cnc(C4(O)CNC4)nc3)cc(-c3ccccn3)c2s1 [Compound 163, 1-ethyl-3-[5-[2-(3-hydroxyazetidin-3-yl)pyrimidin-5-yl]-7-(2-pyridyl)-1,3-benzothiazol-2-yl]urea]",–,8 µg/mL,–
"CCNC(=O)Nc1nc2cc(-c3cnc(C(C)(C)O)nc3)cc(-c3nccc(N4CCC(C)(C(=O)O)CC4)n3)c2s1 [Compound 97, 1-[2-[2-(ethylcarbamoylamino)-5-[2-(1-hydroxy-1-methyl-ethyl)pyrimidin-5-yl]-1,3-benzothiazol-7-yl]pyrimidin-4-yl]-4-methyl-piperidine-4-carboxylic acid]",4 µg/mL,≤ 1 µg/mL,–
"CCNC(=O)Nc1nc2cc(-c3cnc(C(C)O)nc3)c(OCC3CCCO3)cc2s1 (stereo not shown) [Compound 193, 1-ethyl-3-[5-[2-[1-hydroxyethyl]pyrimidin-5-yl]-6-(tetrahydrofuran-2-ylmethoxy)-1,3-benzothiazol-2-yl]urea]",≤ 1 µg/mL,2 µg/mL,–
"CCNC(=O)Nc1nc2cc(-c3cnc(C(O)C(C)(C)C)nc3)cc(-c3ccccn3)c2s1 (stereo not shown) [Compound 60, 1-ethyl-3-[5-[2-(1-hydroxy-2,2-dimethyl-propyl)pyrimidin-5-yl]-7-(2-pyridyl)-1,3-benzothiazol-2-yl]urea]",≤ 1 µg/mL,≤ 1 µg/mL,–
"CCNC(=O)Nc1nc2cc(-c3cnc(C(C)(C)O)s3)cc(-c3ccccn3)c2s1 [Compound 48, 1-ethyl-3-[5-[2-(1-hydroxy-1-methyl-ethyl)thiazol-5-yl]-7-(2-pyridyl)-1,3-benzothiazol-2-yl]urea]",≤ 1 µg/mL,≤ 1 µg/mL,–
"CCNC(=O)Nc1nc2cc(-c3cnc(C(C)O)nc3)c(N3CCOCC3)cc2s1 (stereo not shown) [Compound 194, 1-ethyl-3-[5-[2-[1-hydroxyethyl]pyrimidin-5-yl]-6-morpholino-1,3-benzothiazol-2-yl]urea]",16 µg/mL,–,–
"CCNC(=O)Nc1nc2cc(-c3cnc(C(C)O)nc3)cc(-c3cc(CN4CCC5(CC4)COC5)ccn3)c2s1 (stereo not shown) [Compound 112, 1-ethyl-3-[5-[2-(1-hydroxyethyl)pyrimidin-5-yl]-7-[4-(2-oxa-7-azaspiro[3.5]nonan-7-ylmethyl)-2-pyridyl]-1,3-benzothiazol-2-yl]urea]",≤ 1 µg/mL,≤ 1 µg/mL,–
"CCNC(=O)Nc1nc2cc(-c3cnc(N4CCC(C)(C(=O)O)CC4)nc3)cc(-c3ccc(C(C)(C)O)cn3)c2s1 [Compound 99, 1-[5-[2-(ethylcarbamoylamino)-7-[5-(1-hydroxy-1-methy-ethyl)-2-pyridyl]-1,3-benzothiazol-5-yl]pyrimidin-2-yl]-4-methyl-piperidine-4-carboxylic acid]",–,–,2 µg/mL
"CCNC(=O)Nc1nc2cc(-c3cnc(C(C)(C)O)nc3)cc(-c3cc(CNCCO)ccn3)c2s1 [Compound 196, 1-ethyl-3-[7-[4-[(2-hydroxyethylamino)methyl]-2-pyridyl]-5-[2-(1-hydroxy-1-methyl-ethyl)pyrimidin-5-yl]-1,3-benzothiazol-2-yl]urea]",2 µg/mL,–,–
